A word on the IC50: it is the point on the concentration scale where inhibition reaches its midpoint. Lower therefore signals greater potency in that assay.

Our source for the IC50 values is ChEMBL document CHEMBL4196150, “Structurally Diverse Highly Oxygenated Triterpenoids from the Roots of Ailanthus altissima and Their Cytotoxicity” (J Nat Prod, 2018).

Assay type in all cases: functional, cell-based
One assay concerns 786-0. The assay is described as follows: Cytotoxicity against human 786-O cells after 72 hrs by MTT assay. Conditions: 786-0, 72 h.
A further assay deals with A549. Kind of assay: Cytotoxicity against human A549 cells after 72 hrs by MTT assay. The note with it: A549, 72 h. (In general: Tetrazolium dyes change colour on reduction, which living cells bring about.)
The next assay relates to HepG2. The assay is described as follows: Cytotoxicity against human HepG2 cells after 72 hrs by MTT assay. The note with it: HepG2, 72 h.
Another assay deals with HeLa. The assay is described as follows: Cytotoxicity against human HeLa cells after 72 hrs by MTT assay.

Turning to `C[C@@H](C[C@@H](O)[C@H](O)C(C)(C)O)[C@@H]1CC[C@]2(C)C3=CC[C@H]4C(C)(C)C(=O)CC[C@]4(C)[C@H]3CC[C@@]12C`, the IC50 in the assay on 786-0, with A549, in the assay on HepG2 and in the assay with HeLa was > 40 µM each time.

Consider `C=C(C)[C@H](O)[C@H]1C=C([C@@H]2CC=C3[C@]4(C)[C@H](O)C[C@H]5C(C)(C)OC(=O)C=C[C@]5(C)[C@H]4[C@H](OC(=O)/C(C)=C/C)C[C@]32C)C(=O)O1`, for which the IC50 in the assay on 786-0, with A549, with HepG2 and with HeLa was > 40 µM each time.

Turning to `CC(C)(O)[C@@H]1OC[C@H]([C@@H]2CC[C@]3(C)C4=CC[C@H]5C(C)(C)C(=O)CC[C@]5(C)[C@H]4CC[C@@]23C)C[C@H]1O`, the IC50 with 786-0, with A549, in the assay on HepG2 and in the assay with HeLa was > 40 µM throughout.

Turning to `CC(C)(O)[C@@H]1OC[C@H]([C@@H]2CC[C@]3(C)C4=CC(=O)[C@H]5C(C)(C)C(=O)CC[C@]5(C)[C@H]4CC[C@@]23C)C[C@H]1O`, the IC50 with 786-0, with A549, in the assay on HepG2 and in the assay on HeLa was > 40 µM in each case.

Take `C/C=C(\C)C(=O)O[C@@H]1C[C@]2(C)C(=CC[C@H]2C2=C[C@H]([C@H](O)C(C)(C)OC)OC2=O)[C@]2(C)[C@H](O)C[C@H]3C(C)(C)OC(=O)C=C[C@]3(C)[C@@H]12`: the IC50 in the assay on 786-0, in the assay on A549, with HepG2 and with HeLa was > 40 µM throughout.

With `CC1(C)C(=O)CC[C@]2(C)[C@H]3C[C@@H](O)[C@@H]4[C@@H]([C@]5(C)CCC(=O)O5)CC[C@@]4(C)[C@]3(C)CC[C@@H]12`, the IC50 in the assay with 786-0, in the assay with A549, with HepG2 and with HeLa was > 40 µM in each case.

As to `C/C=C(\C)C(=O)O[C@@H]1C[C@]2(C)C(=CC[C@H]2[C@@H]2C[C@H]([C@H](O)C(C)(C)OC)O[C@H]2OC)[C@]2(C)[C@H](O)C[C@H]3C(C)(C)OC(=O)C=C[C@]3(C)[C@@H]12`, the IC50 in the assay with 786-0, with A549, in the assay with HepG2 and in the assay on HeLa was > 40 µM each time.

Turning to `COC(C)(C)[C@@H](O)[C@H]1C=C([C@@H]2CC(=O)[C@@H]3[C@@]2(C)CC[C@@H]2[C@@]4(C)C=CC(=O)OC(C)(C)[C@@H]4C[C@@H](OC(C)=O)[C@]23C)C(=O)O1`, the IC50 with 786-0, with A549, with HepG2 and with HeLa was > 40 µM in each case.

`COC(=O)CC[C@]1(C)[C@H]2CC[C@@]3(C)[C@H]([C@@H](C)C[C@@H](O)[C@H](O)C(C)(C)O)CC[C@]3(C)C2=CC[C@H]1C(C)(C)O`: the IC50 in the assay on 786-0 was 27.4 µM; with A549, 38.6 µM; in the assay on HepG2, 35.5 µM; in the assay with HeLa, 38.4 µM.

Take `C/C=C(\C)C(=O)O[C@@H]1C[C@]2(C)C(=CC[C@H]2C2=C[C@H]([C@H](O)C(C)(C)O)OC2=O)[C@]2(C)[C@H](O)C[C@H]3C(C)(C)OC(=O)C=C[C@]3(C)[C@@H]12`: the IC50 in the assay on 786-0, in the assay with A549, in the assay with HepG2 and with HeLa was > 40 µM in each case.

For `C/C=C(\C)C(=O)O[C@@H]1C[C@]2(C)C(=CC[C@H]2C2=CO[C@@H]([C@H](O)C(C)(C)O)C2)[C@]2(C)[C@H](O)C[C@H]3C(C)(C)OC(=O)C=C[C@]3(C)[C@@H]12`, the half-maximal inhibitory concentration (IC50) was determined as 34.4 µM in the assay with 786-0, 39.8 µM in the assay with A549, 38.8 µM with HepG2 and 33.2 µM in the assay on HeLa.

For `C/C=C(\C)C(=O)O[C@@H]1C[C@]2(C)C(=CC[C@H]2[C@@H]2C[C@H]([C@H](O)C(C)(C)OC)O[C@@H]2OC)[C@]2(C)[C@H](O)C[C@H]3C(C)(C)OC(=O)C=C[C@]3(C)[C@@H]12`, the concentration for half-maximal inhibition (IC50) with 786-0 amounted to 8.2 µM; with A549 it was 12.5 µM; in the assay on HepG2 it was 38.8 µM; in the assay on HeLa, 38.4 µM.

Regarding `CC1(C)C(=O)CC[C@]2(C)[C@H]3CC[C@@H]4[C@@H]([C@]5(C)CCC(=O)O5)CC[C@@]4(C)[C@]3(C)CC[C@@H]12` [CABRALELACTONE], the IC50 in the assay on 786-0, in the assay with A549, with HepG2 and in the assay on HeLa was > 40 µM throughout.

For `COc1cc2c(c(OC)c1OC)-c1ccc(OC)c(=O)cc1[C@@H](NC(C)=O)CC2` [COLCHICINE], the results for the IC50 with 786-0, in the assay on A549 and in the assay on HepG2 were 0.022 µM, 0.043 µM and 0.078 µM, respectively.
